Experimental findings from US12209142B2, “SARS-CoV-2 epitope-targeted peptide immunostimulants” (Institute for Systems Biology, priority 2020, dated 2025) are described below.

Entries after “also recorded” stand apart in the source; their conditions may differ. Where a SMILES comes first, the peptide text is derived from it. Bridges are numbered along the chain shown (N, C = ends). Triazole bridges read from a SMILES are 1,4-linked. [ ]: non-standard residue; d: D form. The star is where a group is joined. Biotin = O=C1N[C@H]2[C@H](CS[C@H]2CCCCC(=O)*)N1; Lys(N3) = [N-]=[N+]=NCCCC[C@H](N)C(=O)O; PEG5 = NCCOCCOCCOCCOCCOCCC(=O)O; Pra = C#CC[C@H](N)C(=O)O

The target in test [1] is T1, full-length recombinant MrkA protein (Klebsiella pneumoniae, UniProt P12267).
T1 construct: purchased MyBiosource MBS1248970
T1 sequence (P12267 23-202): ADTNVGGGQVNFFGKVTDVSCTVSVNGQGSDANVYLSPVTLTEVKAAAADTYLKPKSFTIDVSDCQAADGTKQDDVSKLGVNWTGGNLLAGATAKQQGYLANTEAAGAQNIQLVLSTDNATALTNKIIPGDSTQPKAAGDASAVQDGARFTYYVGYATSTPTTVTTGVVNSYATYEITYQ
As to the kind of experiment: Sandwich ELISA of PCC binding to full-length MrkA. The conditions noted are these: sandwich ELISA, biotinylated PCC immobilized. The method, then:
The screen yielded 26 hits (Table 2) that were sequenced, scaled up, and tested for binding to full-length recombinant MrkA in solution by single-point sandwich Enzyme-linked immunoassays (ELISAs) (FIG. 8). HPraGly is present before X1 in each peptide and Az4 follows X5 in each peptide.
An alanine scan was performed to establish which residues of cy(LLFFF) (SEQ ID NO:5) contribute most to MrkA binding. In this assay, a sandwich ELISA is used to quantify the affinity of several cy(LLFFF) (SEQ ID NO:5) analogues, in which one residue is substituted with an alanine, towards full-length MrkA protein. The ELISA results in FIG. 4 show lower signal for every alanine-substituted cy(LLFFF) (SEQ ID NO:5) analogue compared to unmodified cy(LLFFF) (SEQ ID NO:5), establishing that the native compound has the highest affinity. […] Thus, these two C-terminal phenylalanine residues (FIG. 3A, arrows in inset) play critical roles in MrkA binding, and are targets for modifications to improve binding. Another important detail of these alanine scan results is a strong dependence of MrkA binding on the residue position, independent of residue type. For example, cy(LLAFF) (SEQ ID NO:9) and cy(LLFFA) (SEQ ID NO:11) have very different binding affinities, despite having the same phenylalanine-to-alanine substitution.
In vitro ELISA assays. ELISA assays for MrkA-binding and epitope selectivity were performed on clear NeutrAvidin Coated High Capacity Plates (ThermoFisher, 15507). The buffer used for all washes and to dissolve all compounds was TBST+0.1% BSA (TBS+0.05% Tween 20+0.1% BSA, pH 7.3) and, unless otherwise stated, steps were conducted at room temperature. Each wash involved a brief 20 s agitation, and all conjugation, blocking, and incubation steps were performed with gentle agitation over the entire stated time period. The general procedure for an ELISA assay was: wash 3×200 μL/well, conjugate with 2 μM of biotinylated compound for 2 h at room temperature (100 μL/well), wash 3×200 μL/well, blocked overnight in 5 wt % milk at 4° C., wash […] with wash buffer, incubate with titrated compound (e.g., MrkA or epitope) for 1 h, […], incubate with primary antibody […] for 1 h (100 μL/well), wash 3×200 μL/well, incubate with 1:2,000 anti-rabbit secondary antibody-horseradish peroxidase conjugate (Cell signaling Technologies, 7074S) for 1 h, 3×200 μL/well, develop with the Microwell Peroxidase Substrate System (2-C) (SeraCare, 5120-0047) using 100 μL/well for 1-40 minutes, and quench using 1 M H2SO4 (aq.) at 100 μL/well. For MrkA binding assays, biotinylated PCCs were conjugated to the well surface, recombinant MrkA with an N-terminal 6×His-SUMO-tag (MyBiosource, MBS1248970) was titrated at the desired concentration, and the primary antibody was His-tag antibody, pAb, Rabbit (Genscript, A00174) at a 1:5,000 dilution. For epitope selectivity assays, biotinylated SynEps were conjugated, DNP-conjugated AR-PCCs were titrated at a desired concentration, and the primary antibody was anti-DNP antibody produced in Rabbit (Sigma-Aldrich, D9656) at a 1:8,000 dilution. […] For binding tests in the context of mouse sera, the “titrated compound” described in the steps above was dispersed in a solution containing the desired concentration of mouse serum.
In general terms: In an ELISA, binding on a coated surface is turned into a signal by an enzyme label.

In test [2] the test system is MrkA synthetic epitopes (SynEp 1-4). Briefly: Epitope selectivity sandwich ELISA with immobilized SynEps. Format: binding, Klebsiella pneumoniae. The conditions noted are these: DNP-conjugated ligand at 500 nM, anti-DNP detection. How it is done:
The particular epitope target to which cy(LLFFF) (SEQ ID NO:5) binds was next identified. A sandwich ELISA was performed in which the biotinylated SynEps were immobilized. The lead ligand cy(LLFFF) (SEQ ID NO:5), conjugated to a 2,4-dinitrophenyl (DNP) moiety, was titrated at a 500 nM concentration, and anti-DNP was used as a detection antibody. […] A background level for this assay was established using a biotinylated 6-mer polyethylene glycol (biotin-PEG6). […] As the native epitope for SynEp1 has a GRAVY score of 1.01, while the native versions of other SynEps range between −0.9 and −0.28, the negative ELISA signals may arise from the relatively high hydrophobicity of SynEp 1 versus others. The blocking may also result from the reactivity of the cysteine residue in SynEp 1. […] (SEQ ID NO:2) in native MrkA.
In vitro ELISA assays. ELISA assays for MrkA-binding and epitope selectivity were performed on clear NeutrAvidin Coated High Capacity Plates (ThermoFisher, 15507). The buffer used for all washes and to dissolve all compounds was TBST+0.1% BSA (TBS+0.05% Tween 20+0.1% BSA, pH 7.3) and, unless otherwise stated, steps were conducted at room temperature. Each wash involved a brief 20 s agitation, and all conjugation, blocking, and incubation steps were performed with gentle agitation over the entire stated time period. […]

The subject of test [3] is MrkA-expressing K. pneumoniae cells. Briefly: Whole-cell ELISA of biotinylated PCC binding.
Test [4] relates to Escherichia coli (E. coli) cells. Briefly: Whole-cell ELISA of biotinylated PCC binding. The conditions noted are these: biotinylated PCC at 5 μM.
Method: Whole-cell ELISAs. Detection of the binding of biotinylated PCCs to bacterial surface was performed as follows. 108 bacteria from a culture grown overnight were used for each test. Bacteria were incubated with PBS containing 1% BSA (PBS-BSA) for 1 h at 37° C., washed once with PBS, and then incubated with 5 μM of the biotinylated PCC in PBS-BSA for 1 h at 37° C. After washing thrice with PBS to remove unbound PCCs, bacteria were incubated with Streptavidin-HRP (1:1000) for 1 h at 37° C. Bacteria were washed thoroughly and the TMB reagent was added until visible coloration was observed. The reaction was quenched using 2N H2SO4 and absorbance was measured at 450 nm.
[5] abbreviates: strain BAA 1705, PCC 5 μM or lower.

In general, EC50 refers to the midpoint of the concentration-response curve. With `CC(C)C[C@@H]1NC(=O)[C@@H](NC(=O)CCOCCOCCOCCOCCOCCNC(=O)CCCC[C@@H]2SC[C@@H]3NC(=O)N[C@@H]32)Cc2cn(nn2)CCCC[C@@H](C(N)=O)NC(=O)[C@H](Cc2ccccc2)NC(=O)[C@H](Cc2ccccc2)NC(=O)[C@H](Cc2ccccc2)NC(=O)[C@H](CC(C)C)NC1=O` [cy(LLFFF)] ({Biotin-PEG5}-[Pra]LLFFF[Lys(N3)]-NH2; triazole 1-7; N-terminus and C-terminus assumed), in test [1], the EC50 came out at 50 nM. The “binding to synthetic epitopes (SynEp selectivity)” value in test [2] is on record as “preferably bind synthetic epitope 2; also recorded: highest signals from SynEp 2; also recorded: selectively binds synthetic epitope 2 versus other targeted epitopes”. Besides, in test [3] (MrkA/B/C knockout KPPR1), the “whole-cell ELISA signal, MrkA-knockout KPPR1” value was “ELISA intensities comparable to baseline”. For the same compound, in test [3] (biotinylated PCC at 5 μM), the “whole-cell ELISA signal, K. pneumoniae BAA 1705 and BAA 2146” value is “high absorbance; also recorded: strong signal; also recorded: binds two strains of MrkA-expressing K. pneumoniae cells with excellent selectivity versus E. coli and S. typhimurium”. Further, the “whole-cell ELISA signal at high PCC concentration, LB or G-CAA” value in test [3] (strain BAA 1705, 50 μM PCC) is “strong and comparable ELISA signals”. Moreover, in test [3] (setting [5]), the “whole-cell ELISA 450 nm absorbance, cells cultured in G-CAA (high MrkA)” value is on record as “strong absorbances” and the “whole-cell ELISA 450 nm absorbance, cells cultured in LB (low MrkA)” value is “near-baseline absorbances”. Besides, in test [3] (wild type KPPR1 (ATCC 43816), G-CAA media, 5 μM down to 5 nM), the “whole-cell ELISA signal, wild type KPPR1” value is “strong signals; also recorded: binds wild type MrkA-expressing KPPR1 cells”. The “whole-cell ELISA signal, E. coli” value in test [4] is “small absorbances; also recorded: only weak signals”.
